The values that follow come from US20070178151A1, “Spray dried pharmaceutical compositions” (priority 2004, published 2007).

SMILES strings stand for the structures. ≈ marks a conversion by molar mass, not a printed value.

The data set in a line: aqueous solubility of talnetant. The note with it: aqueous medium. It counts as physicochemical. The source says: Typically drugs with low aqueous solubility are absorbed slowly across the walls of the gastrointestinal tract (GIT) due to poor dissolution of the solid in the GIT leading to a small diffusive driving force.

Usually solubility stands for the dissolved amount per volume that the medium holds. Take `CC[C@H](NC(=O)c1c(O)c(-c2ccccc2)nc2ccccc12)c1ccccc1` [Talnetant, (S)-(−)-N-(α-ethylbenzyl)-3-hydroxy-2-phenylquinoline4-carboxamide]: the solubility is roughly 1 µg/mL (≈ 2.61 µM) (aqueous buffer, pH 7.0) and roughly 30 µg/mL (≈ 78.4 µM) (pH 1, simulated gastric fluid).
